Laboratory results published in patent US20030191323A1, “Hypoglycemic agent” (Ajinomoto Co., Inc., priority 2000, published 2003).

Assays:
[1] = tested on: non-insulin-dependent diabetes model mice (KK mice); assay: Hypoglycemic effect on non-insulin-dependent diabetes model mice (KK mice); format: in vivo; details: Mus musculus, 168 h; 30 mg/kg twice a day for one week, KK mice 8 weeks old; fasted overnight; calculated on the basis of blood glucose level (100) in the control group
Description: Hypoglycemic Effect on Non-Insulin-Dependent Diabetes Model Mice (KK Mice)
Method: A compound (30 mg/kg) was administered to non-insulin-dependent diabetes model mice (8 weeks old) twice a day for one week. After final administration, the mice were fasted overnight and then the blood glucose concentration of each mouse was determined. The hypoglycemic effect of the compound was calculated on the basis of the blood glucose level (100) in the control group.

[2] = tested on: Rat skeletal muscle cell strain L6 cells; assay: Effect of accelerating the glucose uptake in cultured skeletal muscle cells ([3H]-2-deoxyglucose uptake); format: cell-based; details: 10 min, 10 μM compound, cultured overnight, 2DG uptake in L6 myotubes, 37° C. 10 minutes, compared with the control group
Description: Effect of accelerating the glucose uptake in cultured skeletal muscle cells: Method: Rat skeletal muscle cell strain “L6 cells” in a confluent state was cultured in DME medium containing 2% of fetal calf serum for one week to differentiate into myotubes. The medium was replaced with the DME medium containing a compound synthesized in each of the above Reference Examples. After culturing overnight followed by the thorough washing with HEPES buffer solution, an HEPES buffer solution containing 37 kBq/ml of 10 μM [3H]-2-deoxyglucose (2DG) was added thereto. After the culture at 37° C. for 10 minutes, the radioactivity of 2DG transmigrated into the cells was determined. The effect (%) of each compound on 2DG uptake was determined as compared with that in the control group.

melting point [°C] | Structure (SMILES) | inhibition in vivo at 30 mg/kg [1] [%] | activity at 10 µM [2] [%]
175 to 177 | CCCOCC(=O)NS(=O)(=O)c1ccccc1NC(=O)c1ccc(C#Cc2cccc(C(F)(F)F)c2)cc1 [compound 62, 4-(3-Trifluoromethyl)phenylethynyl-N-(2-(2-propyloxyacetylamino)sulfonylphenyl)benzamide] | 60.9 | 
186 to 188 | CCCSCC(=O)NS(=O)(=O)c1ccccc1NC(=O)c1ccc(C#Cc2ccccc2)cc1 [compound 58, 4-Phenylethynyl-N-(2-(2-propylthioacetylamino)sulfonylphenyl]benzamide] | 22.7 | 
183 to 186 | CCCCCC(=O)NS(=O)(=O)c1ccccc1NC(=O)c1ccc(C#Cc2cccc(F)c2)cc1 [compound 72, 4-(3-Fluoro)phenylethynyl-N-(2-hexanoylaminosulfonylphenyl)benzamide] | 9.2 | 279
210 to 212 | CCCCCC(=O)NS(=O)(=O)c1ccccc1NC(=O)c1ccc(C#Cc2ccc(C(F)(F)F)cc2)cc1 [compound 64, 4-(4-Trifluoromethyl)phenylethynyl-N-(2-hexanoylaminosulfonylphenyl)benzamide] | 34.5 | 204
204 to 205 | CC(=O)CCCC(=O)NS(=O)(=O)c1ccccc1NC(=O)c1ccc(C#Cc2ccc(OC(F)(F)F)cc2)cc1 [compound 67, 4-(4-Trifluoromethoxyl)phenylethynyl-N-(2-(5-ketohexanoylamino)sulfonylphenyl)benzamide] | 40.2 | 
197 to 199 | CCCCCC(=O)NS(=O)(=O)c1ccccc1NC(=O)c1ccc(C#Cc2ccc(OC(F)(F)F)cc2)cc1 [compound 66, 4-(4-Trifluoromethoxyl)phenylethynyl-N-(2-hexanoylaminosulfonylphenyl)benzamide] | 28.2 | 94
179 to 181 | CC(=O)CCCC(=O)NS(=O)(=O)c1ccccc1NC(=O)c1ccc(C#Cc2ccc(F)cc2)cc1 [compound 70, 4-(4-Fluoro)phenylethynyl-N-(2-(5-ketohexanoylamino)sulfonylphenyl)benzamide] | 30.5 | 
175 to 176 | CCCCCC(=O)NS(=O)(=O)c1ccccc1NC(=O)c1ccc(C#Cc2ccccc2)cc1 [compound 49, N-[2-(4-Phenylethynylbenzamido)benzenesulfonyl]hexanamide] | 10.3 | 212
183 to 186 | CCCCCC(=O)NS(=O)(=O)c1ccccc1NC(=O)c1ccc(C#Cc2ccc(F)cc2)cc1 [compound 69, 4-(4-Fluoro)phenylethynyl-N-(2-hexanoylaminosulfonylphenyl)benzamide] | 27.7 | 240
169 to 171 | CC(=O)CCCC(=O)NS(=O)(=O)c1ccccc1NC(=O)c1ccc(C#Cc2cccc(C(F)(F)F)c2)cc1 [compound 61, 4-(3-Trifluoromethyl)phenylethynyl-N-(2-(5-ketohexanoylamino)sulfonylphenyl)benzamide] | 65.7 | 
194 to 196 | CCCCCC(=O)NS(=O)(=O)c1ccccc1NC(=O)c1ccc(C#Cc2cccc(C(F)(F)F)c2)cc1 [compound 60, 4-(3-Trifluoromethyl)phenylethynyl-N-(2-hexanoylaminosulfonylphenyl)benzamide] | 51.1 | 246
